Measurements taken from publication PMC9385671 (Nature Communications, 2022).
Several values for one entry are separate records, joined by “and”; a condition that tells them apart may be missing. Equal values may be shown once. Read-outs that look alike come from different tables or passages of the source.

Tests used:
[1] = tested on: MjTyrRS variants; experiment: Intact cell fluorescence assay of HYs incorporation into SUMO-sfGFP; assay type: cell-based, Methanocaldococcus jannaschii
Description: (§1) The intact cell fluorescence assay was performed to approximately compare the Br2Y and Cl2Y incorporation efficiency of screened MjTyrRSs as well as to estimate their promiscuity against other Tyr analogues. Since the gene expression of SUMO-sfGFP was driven by T5 promoter on the one round positive selection plasmid, SUMO-sfGFP can be directly expressed in DH10b strain. […] Next day, an overnight culture was inoculated in a well at a ratio of 1:100 containing 300 μL TB medium supplemented with 50 μg/mL Kan,100 μg/mL Amp, 0.5 mM IPTG as well as 1 mM HYs while the corresponding control lacked the HYs. Cells were grown in 96 well plates (Ibidi) with orbital shaking (2 mm amplitude) for 24 h at 37 °C covered with a gas-permeable foil (Sigma Aldrich, Taufkirchen, Germany). […] After 24 h incubation, the optimal density and fluorescence was measured via top reading after the gas-permeable foil was removed. Each measurement was done in triplicate.

[2] = molecular target: T1, MjTyrRS variants (Methanocaldococcus jannaschii, UniProt Q57834, D158A/F108N/H70G/L162C/L65E/Y32V); experiment: as above; assay type: cell-based; conditions: Synthetase C64RS
T1 construct: expressed in transfected cells
T1 sequence (Q57834 whole entry Y32V/L65E/H70G/F108N/D158A/L162C): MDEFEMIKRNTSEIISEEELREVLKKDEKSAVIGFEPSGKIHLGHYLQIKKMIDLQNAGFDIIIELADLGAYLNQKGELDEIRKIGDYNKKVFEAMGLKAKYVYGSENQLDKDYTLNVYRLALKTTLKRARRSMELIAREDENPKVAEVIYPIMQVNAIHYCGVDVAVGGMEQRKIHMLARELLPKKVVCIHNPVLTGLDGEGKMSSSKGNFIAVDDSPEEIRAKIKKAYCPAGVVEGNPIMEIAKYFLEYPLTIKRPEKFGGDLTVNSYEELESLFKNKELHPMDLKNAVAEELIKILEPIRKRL
Description: as §1

[3] = molecular target: T2, MjTyrRS variants (Methanocaldococcus jannaschii, UniProt Q57834, D158A/F108Q/H70G/L162N/L65E/Q109C/Y32G); experiment: as above; assay type: cell-based; conditions: for Fluorescence Instensity: Synthetase B48RS
T2 construct: expressed in transfected cells
T2 sequence (Q57834 whole entry Y32G/L65E/H70G/F108Q/Q109C/D158A/L162N): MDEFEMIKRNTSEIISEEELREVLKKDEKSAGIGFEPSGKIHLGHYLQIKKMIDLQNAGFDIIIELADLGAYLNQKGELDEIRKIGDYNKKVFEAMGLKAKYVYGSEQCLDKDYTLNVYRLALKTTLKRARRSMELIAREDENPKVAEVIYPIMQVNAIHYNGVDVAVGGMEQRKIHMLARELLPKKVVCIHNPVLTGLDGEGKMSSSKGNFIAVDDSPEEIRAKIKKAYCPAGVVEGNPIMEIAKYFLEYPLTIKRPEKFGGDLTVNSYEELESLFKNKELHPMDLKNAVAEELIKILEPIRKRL
Description: as §1

[4] = molecular target: FtsZ-YFP-mts (Escherichia coli, UniProt P0A9A6); assay type: biochemical; parameters: made in house; host or cells: E. coli BL21(DE3) for the wild type; conditions: 5 μM protein, 1 mM GTP; for GTPase activity, Average: average of two repeats; for GTPase activity, single repeats: repeat 1 and repeat 2
Description: Reactions were performed every 20 s for a total time of 120 s. After 30 min of incubation with BIOMOL® GREEN at room temperature, the absorbance of the samples at 620 nm was monitored by TECAN plate reader. The phosphate release concentrations were calculated based on a phosphate standard curve.

[5] = Side-chain acidity: pKa by 1H NMR titration of free amino acids; assay type: physicochemical; conditions: for pKa: aqueous KH2PO4 solution titrated with sodium hydroxide; for pKa of the phenolic side-chain: experimental error ±0.15
Description: 10–20 mg of an amino acid, 50 mg of KH2PO4 was dissolved in 15 ml of water and titrated by sodium hydroxide solution to distinct pH values. 500 μl were taken to NMR tubes, 50 μl deuterium oxidewas added and ^1H NMR spectra were measured using W5 pulse tray water suppression at 500 MHz frequency. The chemical shifts were plotted against pH and analyzed using Henderson-Hasselbalch equation to deliver the pKa values. Experimental error ±0.15.

[6] = molecular target: the molecule itself; experiment: dynamic light scattering; 12.5 µM FtsZ in SLB buffer (50 mM Tris-HCl pH 7.5, 150 mM KCl), 25 °C, 90° light scattering; polymerisation started by adding 4 mM GTP, followed for at least 70 min
[7] = experimental error ±0.15, read-out: Ammonium pKa
[8] = experimental error ±0.15, read-out: pKa of the phenolic side-chain

N[C@@H](Cc1cc(Br)c(O)c(Br)c1)C(=O)O [Br2Y, 3,5-dibromo-L-tyrosine]
Fluorescence Instensity ([1]; Synthetase B4RS): 0.3153 a.u. and 0.3784 a.u. and 0.2551 a.u.
Fluorescence Instensity ([1]; Synthetase B12RS): 0.5915 a.u. and 0.6712 a.u. and 0.4959 a.u.
Fluorescence Instensity ([1]; Synthetase B37RS): 0.6 a.u. and 0.6999 a.u. and 0.4943 a.u.
Fluorescence Instensity ([1]; Synthetase B39RS): 0.615 a.u. and 0.7381 a.u. and 0.4945 a.u.
Fluorescence Instensity ([1]; Synthetase C5RS): 0.6366 a.u. and 0.6936 a.u. and 0.5742 a.u.
Fluorescence Instensity ([1]; Synthetase C45RS): 0.5945 a.u. and 0.6865 a.u. and 0.5035 a.u.
Fluorescence Instensity ([1]; Synthetase C61RS): 0.4306 a.u. and 0.4884 a.u. and 0.3801 a.u.
Fluorescence Instensity [2]: 0.543 a.u. and 0.6311 a.u. and 0.4752 a.u.
Fluorescence Instensity [3]: 0.6442 a.u. and 0.7285 a.u. and 0.5778 a.u.
Incorporation efficiency (sfGFP fluorescence) versus control without HYs additions ([3]; mutant B48RS, 1 mM HY, E. coli DH10b): more than 100 fold
GTPase activity, Average [4]: 3.469 pi/min
GTPase activity, single repeats [4]: 3.2195 pi/min and 3.7182 pi/min
pKa [5, 7]: 9.47
pKa [5, 8]: 6.5
pKa of the phenolic side-chain [5]: 6.42 and 6.4

N[C@@H](Cc1cc(I)c(O)c(I)c1)C(=O)O [I2Y, 3,5-diiodo-L-tyrosine]
Fluorescence Instensity ([1]; Synthetase B4RS): 0.01117 a.u. and 0.01123 a.u. and 0.01112 a.u.
Fluorescence Instensity ([1]; Synthetase B12RS): 0.07137 a.u. and 0.08741 a.u. and 0.05734 a.u.
Fluorescence Instensity ([1]; Synthetase B37RS): 0.1118 a.u. and 0.1372 a.u. and 0.08534 a.u.
Fluorescence Instensity ([1]; Synthetase B39RS): 0.1743 a.u. and 0.1958 a.u. and 0.1504 a.u.
Fluorescence Instensity ([1]; Synthetase C45RS): 0.07608 a.u. and 0.1006 a.u. and 0.05086 a.u.
Fluorescence Instensity [2]: 0.1172 a.u. and 0.1504 a.u. and 0.08392 a.u.
Fluorescence Instensity [3]: 0.00608 a.u. and 0.00634 a.u. and 0.00611 a.u.
GTPase activity, Average [4]: 1.222 pi/min
GTPase activity, single repeats [4]: 1.132 pi/min and 1.3119 pi/min
pKa [5, 7]: 9.38
pKa [5, 8]: 6.5
pKa of the phenolic side-chain [5]: 6.45

N[C@@H](Cc1ccc(O)c(I)c1)C(=O)O [IY, 3-iodo-L-tyrosine]
Fluorescence Instensity ([1]; Synthetase B12RS): 0.5049 a.u. and 0.5603 a.u. and 0.4548 a.u.
Fluorescence Instensity ([1]; Synthetase B37RS): 0.268 a.u. and 0.305 a.u. and 0.2304 a.u.
Fluorescence Instensity ([1]; Synthetase B39RS): 0.1745 a.u. and 0.1928 a.u. and 0.1452 a.u.
Fluorescence Instensity ([1]; Synthetase C5RS): 0.6274 a.u. and 0.698 a.u. and 0.5495 a.u.
Fluorescence Instensity ([1]; Synthetase C45RS): 0.7321 a.u. and 0.8284 a.u. and 0.6034 a.u.
Fluorescence Instensity ([1]; Synthetase C61RS): 0.5143 a.u. and 0.5653 a.u. and 0.452 a.u.
Fluorescence Instensity [2]: 0.4349 a.u. and 0.5128 a.u. and 0.3571 a.u.
Fluorescence Instensity [3]: 0.5153 a.u. and 0.5773 a.u. and 0.4545 a.u.
GTPase activity, single repeats [4]: 1.6686 pi/min and 1.8578 pi/min
pKa [5, 7]: 9.37
pKa [5, 8]: 8.3

B1: wild type FtsZ-YFP-mts (domain or fragment, UniProt P0A9A6 1-366, looked up)
chain: MFEPMELTNDAVIKVIGVGGGGGNAVEHMVRERIEGVEFFAVNTDAQALRKTAVGQTIQIGSGITKGLGAGANPEVGRNAADEDRDALRAALEGADMVFIAAGMGGGTGTGAAPVVAEVAKDLGILTVAVVTKPFNFEGKKRMAFAEQGITELSKHVDSLITIPNDKLLKVLGRGISLLDAFGAANDVLKGAVQGIAELITRPGLMNVDFADVRTVMSEMGYAMMGSGVASGEDRAEEAAEMAISSPLLEDIDLSGARGVLVNITAGFDLRLDEFETVGNTIRAFASDNATVVIGTSLDPDMNDELRVTVVATGIGMDKRPEITLVTNKQVQQPVMDRYQQHGMAPLTQEQKPVAKVVNDNAPQTA
notes: FtsZ, prokaryotic cell-division protein (ftsZ gene product), truncated to residues 1-366; also called FtsZ chimera; FtsZ(1-366) fused with YFP and mts; source: E. coli BL21(DE3), pET-11b, purified (ammonium sulphate precipitation, anion exchange Q-Sepharose)
binding result [6]: binds
